According to patent publication US5424442A, “Water-soluble methine compounds useful in photographic silver halide emulsion containing the same” (Fuji Photo Film Co., Ltd., priority 1990, dated 1995):
Where “and” joins values, the source holds several entries; their conditions need not be identical. Equal values may be shown once. Read-outs that look alike come from different tables or passages of the source.

Columns and labels:
[1] = Spectral sensitization of photographic silver halide emulsion; parameters: Yellow filter sensitivity (SY) / Red filter sensitivity (SR): scale not given here; details: for Red filter sensitivity (SR): red filter SC-60, 5 seconds exposure; for Red filter sensitivity (SR) / Yellow filter sensitivity (SY): standard point Fog+0.2; for Maximum Sensitization: spectrogram, tungsten light source of 2666° K.; for Yellow filter sensitivity (SY): yellow filter SC-50, 5 seconds exposure
Experimental: A silver halide emulsion comprising pure silver bromide and having a cubic crystal form (the area ratio of the plane to the entire surface area of grain being 92%) was prepared and subjected to a sulfur sensitization treatment. The average diameter of silver halide grains contained in the emulsion was 0.68 μm, and 0.74 mol of silver halide per kg of emulsion was contained in the emulsion. One kg of the emulsion was weighed in each of pots. An aqueous solution of each of the compounds of formula (I) indicated in Tables 4 and 5 was added to the pot, and the mixture was mixed with stirring at 40° C. For the purpose of comparison, comparative compounds 1 and 2 wherein counter ion was iodide were dispersed in water and added to respective pots.
Further, 4-hydroxy-6-methyl-1,3,3a,7-tetraazaindene in an amount of 0.1 g/kg of emulsion, sodium salt of 2,4-dichloro-6-hydroxy-1,3,5-triazine in an amount of 0.1 g/kg of emulsion and sodium dodecylbenzenesulfonate in an amount of 0.1 g/kg of emulsion in order were added thereto. The emulsion was then coated on a polyethylene terephthalate film to obtain a photographic material.
Each of these samples was exposed through an optical wedge for 5 seconds by using a yellow filter (SC-50, a product of Fuji Photo Film Co., Ltd.) or a red filter (SC-60, a product of Fuji Photo Film Co., Ltd.) and tungsten light (5400° K.).
A spectrogram was obtained by using a grating spectrograph having a tungsten light source of 2666° K., and the maximum sensitization was measured.
After exposure, the samples were developed at 20° C for 4 minutes by using the following developing solution. The density of each of the developed films was measured by using a densitometer (manufactured by Fuji Photo Film Co., Ltd. Spectral sensitivity, that is, yellow filter sensitivity (SY) or red filter sensitivity (SR), sensitivity (SB) in the sensitive region inherent in silver halide, and fog were determined. Sensitivity was determined when the standard point of optical density was referred to as (Fog+0.2). Composition of Developing Solution […]
Two volumes of water were added thereto to obtain a working solution when used.

[2] = Solubility in solvents (dissolution in incubator, filtration through microfilter, visible absorption); format: physicochemical; details: for Solubility in MeOH / Solubility in H2O: 720 min
Excerpt: The solubility of some of the compounds within formula (I) was accurately measured.
The measurement of solubility was made in the following manner.

[3] = water, Table 3, read-out: Solubility in Water
[4] = MeOH, 37° C., 12 hours, Table 2
[5] = water, H2O, 37° C., 12 hours, Table 2, read-out: Solubility in H2O
[6] = MeOH, 37° C., 12 hours, Table 1

In the case of CCCn1c(=Cc2oc3cc(C)c(C)cc3[n+]2CC)sc(=CC=C2C=CN(CC)c3ccccc32)c1=O [Compound 101], the “Red filter sensitivity (SR)” value ([1]; Table 5) is reported as 2270 and the “Maximum Sensitization” value ([1]; Table 5) is reported as 695 nm.

Work on CCN1C(=CC=c2sc(=Cc3cc[n+](C)c4ccccc34)n(C)c2=O)N(CC)c2ccccc21 [Compound 104] yielded a solubility at 12 h [2, 3] of 4100 µg/mL.

With CCn1c(=Cc2sc3cc(C)c(C)cc3[n+]2CC)sc(=C2Sc3ccccc3N2C)c1=O [Compound 110] the “Solubility in MeOH” value [2, 4] was greater than 10000 µg/mL and the solubility at 12 h [2, 5] was 1700 µg/mL.

For CCn1c(=Cc2sc3cc(C)c(C)cc3[n+]2CC)sc(=C2Sc3ccc(OC)cc3N2C)c1=O [Compound 111], the “Maximum Sensitization” value ([1]; Table 4) was 540 nm and the “Yellow filter sensitivity (SY)” value ([1]; Table 4) was 2085.

CCn1c(=Cc2sc3ccccc3[n+]2C)sc(=C2Oc3ccc4ccccc4c3N2C)c1=O [Compound 127] gave a solubility at 12 h [2, 3] of 5700 µg/mL.

In the case of CCn1c(=Cc2oc3ccccc3[n+]2CC)sc(=C2Sc3ccccc3N2C)c1=O [Compound 128], the “Solubility in H2O” value ([2]; H2O, 37° C., 12 hours, Table 2) is reported as greater than 10000 µg/mL and the “Solubility in MeOH” value [2, 4] is reported as greater than 10000 µg/mL.

In the case of CCn1c(=Cc2oc3ccc(-c4ccccc4)cc3[n+]2CC)sc(=C2Sc3ccccc3N2C)c1=O [Compound 133], the “Maximum Sensitization” value ([1]; Table 4) is reported as 520 nm and the “Yellow filter sensitivity (SY)” value ([1]; Table 4) is reported as 1620.

For CCn1c(=Cc2oc3c4ccccc4ccc3[n+]2CC)sc(=C2Sc3ccccc3N2C)c1=O [Compound 134], the “Maximum Sensitization” value ([1]; Table 4) was 520 nm, the “Yellow filter sensitivity (SY)” value ([1]; Table 4) was 1350 and the “Solubility in MeOH” value [2, 4] was greater than 10000 µg/mL. It also gave a solubility at 12 h [2, 5] of 6900 µg/mL.

For CCn1c(=CC2=[N+](CC)CCS2)sc(=C2Sc3ccccc3N2C)c1=O [Compound 142], the “Maximum Sensitization” value ([1]; Table 4) was 495 nm and the “Yellow filter sensitivity (SY)” value ([1]; Table 4) was 300.

Work on CN1C(=c2sc(=Cc3cc[n+](C)cc3)n(C)c2=O)Sc2ccccc21 [Compound 145] yielded a solubility at 12 h [2, 3] of 8800 µg/mL.

Molecule CCn1c(=Cc2sc3ccccc3[n+]2CC)sc(=C2C=Cc3ccccc3N2C)c1=O [Compound 147] has a solubility at 12 h [2, 3] of 8100 µg/mL.

Work on CCn1c(=CC2=CC(=Cc3sc4ccccc4[n+]3CC)CC(C)(C)C2)sc(=C2Sc3ccccc3N2C)c1=O [Compound 148] yielded a solubility at 12 h [2, 3] of 3200 µg/mL.

With CCn1c(=CC2=CC(=Cc3sc4cc(C)c(C)cc4[n+]3CC)CC(C)(C)C2)sc(=C2Sc3ccccc3N2C)c1=O [Compound 151] the “Red filter sensitivity (SR)” value ([1]; Table 5) was 1535 and the “Maximum Sensitization” value ([1]; Table 5) was 750 nm.

In the case of CCN1C(=CC=c2sc(=CC3=CC(=Cc4sc5cc(C)c(C)cc5[n+]4CC)Oc4ccccc43)n(CC)c2=O)Sc2ccccc21 [Compound 153], the solubility at 12 h [2, 3] is reported as 1400 µg/mL.

For CCn1c(=C2CCC[n+]3c2sc2ccccc23)sc(=C2Sc3ccccc3N2C)c1=O [Compound 156], the solubility at 12 h [2, 3] was 3700 µg/mL.

With CCN1C(C)=CSC1=CC=c1sc(=Cc2sc3ccccc3[n+]2CC)n(CC)c1=O [Compound A, reference compound] the “Solubility in H2O” value ([2]; H2O, 37° C., 12 hours) was 170 µM, the “Solubility in H2O” value ([2]; H2O, 37° C., 12 hours, Table 1) was 100 µg/mL and the “Solubility in MeOH” value ([2]; MeOH, 37° C., 12 hours) was 1110 µM. The “Solubility in MeOH” value [2, 6] was 650 µg/mL and the solubility at 12 h ([2]; dmso, organic solvent or mixture, DMSO, 37° C., 12 hours, read-out: Solubility in DMSO) was 20000 µM and 11700 µg/mL.

With CCn1c(=Cc2oc3ccccc3[n+]2CC)sc(=C2Sc3ccccc3N2C)c1=O [Compound D, reference compound] the “Solubility in H2O” value ([2]; H2O, 37° C., 12 hours, Table 2) was 200 µg/mL and the “Solubility in MeOH” value [2, 4] was 2000 µg/mL.

For CCN1C(=CC=c2sc(=Cc3sc4c5ccccc5ccc4[n+]3CC)n(CC)c2=O)Sc2ccc3ccccc3c21 [Compound E, reference compound], the “Solubility in MeOH” value ([2]; MeOH, 37° C., 12 hours) was 30 µM and the “Solubility in MeOH” value [2, 6] was 30 µg/mL.

With CCn1c(=Cc2sc3cc(C)c(C)cc3[n+]2CC)sc(=C2Sc3ccccc3N2C)c1=O [drawing 127, reference compound] the “Solubility in MeOH” value [2, 4] was 100 µg/mL.

With CCn1c(=Cc2oc3c4ccccc4ccc3[n+]2CC)sc(=C2Sc3ccccc3N2C)c1=O [drawing 128, reference compound] the “Solubility in MeOH” value [2, 4] was 150 µg/mL.

Molecule CCN1C(=CC=c2sc(=Cc3cc[n+](CC)c4ccccc34)n(CC)c2=O)C=Cc2ccccc21 [reference compound] has a solubility at 12 h ([2]; methanol, organic solvent or mixture, MeOH, 37° C., 12 hours, Table 2, read-out: Solubility in MeOH) of 2800 µg/mL and a solubility at 12 h [2, 5] of 300 µg/mL.
